Experimental findings from patent US12630498B2 (Genzyme Corporation, priority 2019, dated 2026) are described below.

The target in experiment [1] is T1, CFTR-mediated transepithelial chloride transport in primary human bronchial epithelial cells from a ΔF508 homozygous CF donor (Homo sapiens, UniProt P13569, DEL508-508).
T1 construct: Primary human bronchial epithelial cells from a ΔF508 homozygous CF donor; host or cells: primary CF-HBE cells, ΔF508 homozygous donor
Put plainly: TECC24 recording of CFTR-mediated transepithelial chloride transport in CF-HBE cells (AUC fold over DMSO). The format is cell-based. The note with it: test agent 10 μM, 48 hours incubation, AUC of forskolin-stimulated IEQ relative to DMSO. An outline of the steps:
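Equivalent Cl⁻ current was derived from transepithelial voltage and resistance, and its AUC from forskolin (10 μM) to CFTRinh-172 (20 μM) was divided by the DMSO AUC. Benzamil 10 μM blocked ENaC. Cells were ΔF508-homozygous primary bronchial epithelia pretreated 48 h at 36.5 °C in IL-13 medium.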

The target in experiment [2] is T2, human Cystic Fibrosis Transmembrane Conductance Regulator (CFTR) harboring the ΔF508 mutation (Homo sapiens, UniProt P13569, DEL508-508).
T2 construct: expressed in transfected cells; host or cells: H441 carcinoma line (G418-selected)
T2 sequence (P13569 with tags, fused parts or gaps DEL508-508): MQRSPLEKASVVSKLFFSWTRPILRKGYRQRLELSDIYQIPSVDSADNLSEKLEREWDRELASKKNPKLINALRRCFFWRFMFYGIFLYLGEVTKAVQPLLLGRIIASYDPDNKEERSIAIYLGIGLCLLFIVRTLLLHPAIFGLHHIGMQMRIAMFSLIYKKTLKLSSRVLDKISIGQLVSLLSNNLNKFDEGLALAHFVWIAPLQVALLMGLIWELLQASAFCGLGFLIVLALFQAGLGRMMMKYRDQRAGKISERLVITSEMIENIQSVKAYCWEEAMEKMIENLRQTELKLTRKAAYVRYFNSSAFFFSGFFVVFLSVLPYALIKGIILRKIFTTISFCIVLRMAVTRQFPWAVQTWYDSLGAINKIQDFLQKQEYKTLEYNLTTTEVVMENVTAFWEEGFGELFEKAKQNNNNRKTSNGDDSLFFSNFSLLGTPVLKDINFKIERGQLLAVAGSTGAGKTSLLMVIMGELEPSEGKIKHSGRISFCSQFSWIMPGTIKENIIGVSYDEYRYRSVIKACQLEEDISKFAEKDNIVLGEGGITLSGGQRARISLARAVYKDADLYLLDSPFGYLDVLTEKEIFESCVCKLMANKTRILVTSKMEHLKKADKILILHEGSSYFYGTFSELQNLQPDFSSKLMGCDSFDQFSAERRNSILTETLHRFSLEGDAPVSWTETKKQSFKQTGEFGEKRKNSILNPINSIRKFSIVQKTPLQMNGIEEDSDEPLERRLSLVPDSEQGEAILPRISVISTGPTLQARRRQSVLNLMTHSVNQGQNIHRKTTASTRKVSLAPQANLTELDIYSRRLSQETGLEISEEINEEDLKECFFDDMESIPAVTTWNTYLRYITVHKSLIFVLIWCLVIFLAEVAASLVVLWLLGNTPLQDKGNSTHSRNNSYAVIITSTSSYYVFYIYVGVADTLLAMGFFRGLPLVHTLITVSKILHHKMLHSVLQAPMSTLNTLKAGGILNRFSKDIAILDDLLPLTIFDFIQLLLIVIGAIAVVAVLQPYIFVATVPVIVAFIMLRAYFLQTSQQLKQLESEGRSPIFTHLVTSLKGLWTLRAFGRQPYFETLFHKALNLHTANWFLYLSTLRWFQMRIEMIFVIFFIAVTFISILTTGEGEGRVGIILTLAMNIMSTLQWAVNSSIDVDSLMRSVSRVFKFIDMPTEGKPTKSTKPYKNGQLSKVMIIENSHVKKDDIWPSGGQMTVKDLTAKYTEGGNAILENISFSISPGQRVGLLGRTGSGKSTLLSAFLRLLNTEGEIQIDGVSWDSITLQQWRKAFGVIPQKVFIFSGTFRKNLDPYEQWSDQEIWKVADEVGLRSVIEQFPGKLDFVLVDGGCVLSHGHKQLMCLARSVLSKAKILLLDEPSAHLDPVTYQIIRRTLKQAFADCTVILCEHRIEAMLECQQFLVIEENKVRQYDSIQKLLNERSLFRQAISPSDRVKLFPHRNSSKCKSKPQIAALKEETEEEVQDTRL
The experiment can be described thus: H441 cell ΔF508-CFTR-HRP cell surface assay (Emax and EC50). The format is cell-based. The settings on record: for Emax: NCI-H441, NA = Not active. In outline:
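H441 and 41o- bronchial epithelial cells expressing ΔF508-CFTR with an extracellular-loop-4 HRP tag were treated with a 15-point compound series (24.5–0.001 μM) for two nights, H441 at 27° C, 41o- at 37° C with 0.0005 mg/ml doxycycline. Surface HRP luminescence read; % of maximum VX809 signal and EC50 derived.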

T1 sequence (P13569 with tags, fused parts or gaps DEL508-508): as above

For orientation: Emax means the greatest response seen or fitted, relative to the assay's reference. With `CCC1([C@H](NC(=O)c2ccc3ccc(Cl)cc3c2OCc2ccc(OC(F)(F)F)cc2)C(=O)O)CCCC1` [Example 253, (2S)-2-[[7-chloro-1-[[4-(trifluoromethoxy)phenyl]methoxy]naphthalene-2-carbonyl]amino]-2-(1-ethylcyclopentyl)acetic Acid], the “TECC24 AUC fold over DMSO @10 μM” value in experiment [1] is “A (“A” refers to AUC @10 uM >6)”. Also, the maximal response (Emax) in experiment [2] amounted to 239%.
Usually EC50 stands for the midpoint of the concentration-response curve. With `CC(C)(C)[C@H](NC(=O)c1ccc2ccc(C#N)cc2c1OCc1ccc(OC(F)(F)F)cc1)C(=O)O` [Example 254, (2S)-2-[[7-cyano-1-[[4-(trifluoromethoxy)phenyl]methoxy]naphthalene-2-carbonyl]amino]-3,3-dimethyl-butanoic Acid], the “TECC24 AUC fold over DMSO @10 μM” value in experiment [1] is recorded as “A (“A” refers to AUC @10 uM >6)”. Also, in experiment [2], the EC50 came out at 0.7 µM and the Emax worked out at 176%.
The matching figures for `CCCC(C)(CC)[C@H](NC(=O)c1ccc2ccc(Cl)cc2c1OCc1ccc(C(F)(F)F)cc1)C(=O)O` (stereo partly drawn) [Example 255, (2S)-2-[[7-chloro-1-[[4-(trifluoromethyl)phenyl]methoxy]naphthalene-2-carbonyl]amino]-3-ethyl-3-methyl-hexanoic Acid]: “A (“A” refers to AUC @10 uM >6)”, 0.1 µM and 324%.
Take `CC(C)(C)[C@H](NC(=O)c1ccc2ccc(Br)cc2c1OCc1ccc(C(F)(F)F)cc1)C(=O)O` [Example 256, (2S)-2-[[7-bromo-1-[[4-(trifluoromethyl)phenyl]methoxy]naphthalene-2-carbonyl]amino]-3,3-dimethyl-butanoic Acid]: the “TECC24 AUC fold over DMSO @10 μM” value in experiment [1] is given as “A (“A” refers to AUC @10 uM >6)”. In experiment [2], this compound had an EC50 of 0.1 µM and an Emax of 296%.
Take `CCC(C)(C)[C@H](NC(=O)c1ccc2ccc(C)cc2c1OCCCC(C)(C)C)C(=O)O` [Example 257, (2S)-2-[[1-(4,4-dimethylpentoxy)-7-methyl-naphthalene-2-carbonyl]amino]-3,3-dimethyl-pentanoic Acid]: in experiment [1], the “TECC24 AUC fold over DMSO @10 μM” value was “A (“A” refers to AUC @10 uM >6)”. For the same compound, in experiment [2], the EC50 was 0.6 µM and the Emax was found to be 369%.
For `CCC1([C@H](NC(=O)c2ccc3ccc(Cl)cc3c2OCc2ccc(C(F)(F)F)cc2)C(=O)O)CCCC1` [Example 258], the “TECC24 AUC fold over DMSO @10 μM” value in experiment [1] is listed as “A (“A” refers to AUC @10 uM >6)”. The Emax in experiment [2] amounted to 264%.
In the case of `CC(C)(C)[C@@H](NC(=O)c1ccc2ccc(F)cc2c1OCc1ccc(OC(F)(F)F)cc1)C(=O)O` [Example 259, (2R)-2-[[7-fluoro-1-[[4-(trifluoromethoxy)phenyl]methoxy]naphthalene-2-carbonyl]amino]-3,3-dimethyl-butanoic Acid], the “TECC24 AUC fold over DMSO @10 μM” value in experiment [1] is “A (“A” refers to AUC @10 uM >6)”. In experiment [2], this compound registered an EC50 of 1.7 µM and an Emax of 63.7%.
`CC(C)Oc1ccc2c(OCc3ccc(C(F)(F)F)cc3)c(C(=O)N[C@H](C(=O)O)C(C)(C)C)ccc2c1` [Example 260, (2S)-2-[[6-isopropoxy-1-[[4-(trifluoromethyl)phenyl]methoxy]naphthalene-2-carbonyl]amino]-3,3-dimethyl-butanoic Acid]: in experiment [1], the “TECC24 AUC fold over DMSO @10 μM” value is listed as “C (“C” refers to AUC @10 uM <4)”. In experiment [2], this compound yielded an EC50 of 1.5 µM and a maximal response (Emax) of 70.2%.
On to `CC(C)(C)[C@@H](NC(=O)c1ccc2ccc(F)cc2c1OCc1ccc(C(F)(F)F)cc1)C(=O)O` [Example 261, (2R)-2-[[7-fluoro-1-[[4-(trifluoromethyl)phenyl]methoxy]naphthalene-2-carbonyl]amino]-3,3-dimethyl-butanoic Acid], for which the “TECC24 AUC fold over DMSO @10 μM” value in experiment [1] is “A (“A” refers to AUC @10 uM >6)”. In experiment [2], this compound displayed an EC50 of 0.9 µM and an Emax of 68.4%.
The matching figures for `CC(C)(C)[C@@H](NC(=O)c1ccc2ccc(Cl)cc2c1OCc1ccc(C(F)(F)F)cc1)C(=O)O` [Example 262, (2R)-2-[[7-chloro-1-[[4-(trifluoromethyl)phenyl]methoxy]naphthalene-2-carbonyl]amino]-3,3-dimethyl-butanoic Acid]: “A (“A” refers to AUC @10 uM >6)”, 1.1 µM and 132%.
The matching figures for `Cc1cc(F)c2ccc(C(=O)N[C@H](C(=O)O)C(C)(C)C)c(OCc3ccc(C(F)(F)F)cc3)c2c1` [Example 263, (2S)-2-[[5-fluoro-7-methyl-1-[[4-(trifluoromethyl)phenyl]methoxy]naphthalene-2-carbonyl]amino]-3,3-dimethyl-butanoic Acid]: “A (“A” refers to AUC @10 uM >6)”, 0.1 µM and 250%.
For `CC(C)(C)[C@@H](NC(=O)c1ccc2ccc(C(F)F)cc2c1OCc1ccc(OC(F)(F)F)cc1)C(=O)O` [Example 264, (2R)-2-[[7-(difluoromethyl)-1-[[4-(trifluoromethoxy)phenyl]methoxy]naphthalene-2-carbonyl]amino]-3,3-dimethyl-butanoic Acid], the “TECC24 AUC fold over DMSO @10 μM” value in experiment [1] is on record as “B (“B” refers to AUC @10 uM between 4-6)”. Besides, in experiment [2], a half-maximal effect (EC50) was put at 1.8 µM and the Emax is 70.7%.
With `CC(C)(C)[C@@H](NC(=O)c1ccc2ccc(C(F)F)cc2c1OCc1ccc(C(F)(F)F)cc1)C(=O)O` [Example 265, (2R)-2-[[7-(difluoromethyl)-1-[[4-(trifluoromethyl)phenyl]methoxy]naphthalene-2-carbonyl]amino]-3,3-dimethyl-butanoic Acid], the “TECC24 AUC fold over DMSO @10 μM” value in experiment [1] is reported as “C (“C” refers to AUC @10 uM <4)”. In experiment [2], this compound showed an EC50 of 0.6 µM and an Emax of 96.2%.
The like results for `CCC(C)(C)[C@H](NC(=O)c1ccc2ccc(F)cc2c1OCc1ccc(C(F)(F)F)cc1)C(=O)O` [Example 274, (2S)-2-[[7-fluoro-1-[[4-(trifluoromethyl)phenyl]methoxy]naphthalene-2-carbonyl]amino]-3,3-dimethyl-pentanoic Acid] were, in that order, “A (“A” refers to AUC @10 uM >6)”, 0.2 µM and 195%.
With `CCC(C)(C)C(NC(=O)c1ccc2ccc(C)cc2c1OCc1ccc(C(F)(F)F)cc1)C(=O)O` (stereo not shown) [Example 275, 3,3-Dimethyl-2-{[7-methyl-1-(4-trifluoromethyl-benzyloxy)-naphthalene-2-carbonyl]-amino}-pentanoic Acid], the “TECC24 AUC fold over DMSO @10 μM” value in experiment [1] is reported as “A (“A” refers to AUC @10 uM >6)”. In experiment [2], this compound yielded an EC50 of 0.2 µM and an Emax of 322%.
The matching figures for `CCC(C)(C)C(NC(=O)c1ccc2ccc(C)cc2c1OCc1ccc(OC(F)(F)F)cc1)C(=O)O` (stereo not shown) [Example 276, 3,3-dimethyl-2-(7-methyl-1-((4-(trifluoromethoxy)benzyl)oxy)-2-naphthamido)pentanoic Acid]: “A (“A” refers to AUC @10 uM >6)”, 0.3 µM and 309%.
The like results for `CCC(C)(C)[C@H](NC(=O)c1ccc2ccc(Cl)cc2c1OCc1ccc(OC(F)(F)F)cc1)C(=O)O` [Example 277, (S)-2-(7-chloro-1-((4-(trifluoromethoxy)benzyl)oxy)-2-naphthamido)-3,3-dimethylpentanoic Acid] were, in that order, “A (“A” refers to AUC @10 uM >6)”, 0.1 µM and 186%.
In the case of `Cc1cc2c(OCc3ccc(C(F)(F)F)cc3)c(C(=O)N[C@H](C(=O)O)C(C)(C)C)ccc2cc1F` [Example 278, (S)-2-(6-fluoro-7-methyl-1-((4-(trifluoromethyl)benzyl)oxy)-2-naphthamido)-3,3-dimethylbutanoic Acid], the “TECC24 AUC fold over DMSO @10 μM” value in experiment [1] was “A (“A” refers to AUC @10 uM >6)”. Also, in experiment [2], a half-maximal effect (EC50) was put at 0.2 µM and the Emax came to 248%.
For the compound `Cc1ccc2ccc(C(=O)N[C@H](C(=O)O)C(C)(C)C)c(OCc3ccc(C(F)(F)F)cc3)c2c1` [Example 279, (2S)-3,3-dimethyl-2-[[7-methyl-1-[[4-(trifluoromethyl)phenyl]methoxy]naphthalene-2-carbonyl]amino]butanoic Acid], in experiment [1], the “TECC24 AUC fold over DMSO @10 μM” value is listed as “A (“A” refers to AUC @10 uM >6)”. In experiment [2], the EC50 turned out to be 0.1 µM and the maximum response (Emax) worked out at 348%.
Regarding `CCC(C)(C)[C@H](NC(=O)c1ccc2ccc(C)cc2c1OCc1ccc(OC(F)(F)F)cc1)C(=O)O` [Example 280, (S)-3,3-dimethyl-2-(7-methyl-1-((4-(trifluoromethoxy)benzyl)oxy)-2-naphthamido)pentanoic Acid], in experiment [1], the “TECC24 AUC fold over DMSO @10 μM” value was “A (“A” refers to AUC @10 uM >6)”. In experiment [2], this compound registered an EC50 of 0.3 µM and an Emax of 309%.
As for `CCC(C)(C)[C@H](NC(=O)c1ccc2ccc(C)cc2c1OCC1CCCCC1)C(=O)O` [Example 281, (S)-2-(1-(cyclohexylmethoxy)-7-methyl-2-naphthamido)-3,3-dimethylpentanoic Acid], the “TECC24 AUC fold over DMSO @10 μM” value in experiment [1] is listed as “A (“A” refers to AUC @10 uM >6)”. Further, in experiment [2], the EC50 is 0.7 µM and the Emax is 246%.
The like results for `Cc1ccc2ccc(C(=O)N[C@H](C(=O)O)C(C)(C)CF)c(OCC3CCCCC3)c2c1` [Example 282, (S)-2-(1-(cyclohexylmethoxy)-7-methyl-2-naphthamido)-4-fluoro-3,3-dimethylbutanoic Acid] were, in that order, “A (“A” refers to AUC @10 uM >6)”, 0.7 µM and 285%.
